Earlier results as cited in patent publication US20230243814A1, “CHEMICAL CLAS[…] AND METHOD FOR PLANTS” (priority 2020, published 2023).
Like-named read-outs stand apart in the source and are kept apart here.

Key:
[1] = tested on: brain wave (EEG) activity; settings: for beta wave activity (EEG) / alpha wave activity (EEG) / beta and other absolute wave activity (EEG): inhalation; for alpha wave boost: focus / beta wave boost: creativity: relative magnitude in words; as to alpha wave activity (EEG): test concentration or dose not given here; as to beta and other absolute wave activity (EEG): test concentration or dose not given here; as to beta wave activity (EEG): test concentration or dose not given here
[2] = relative magnitude of the activity in words
[3] = target: AChE (acetylcholinesterase) (Homo sapiens, UniProt P22303); settings: relative magnitude of the activity in words
Chain of AChE (acetylcholinesterase) (P22303 32-614, species assumed): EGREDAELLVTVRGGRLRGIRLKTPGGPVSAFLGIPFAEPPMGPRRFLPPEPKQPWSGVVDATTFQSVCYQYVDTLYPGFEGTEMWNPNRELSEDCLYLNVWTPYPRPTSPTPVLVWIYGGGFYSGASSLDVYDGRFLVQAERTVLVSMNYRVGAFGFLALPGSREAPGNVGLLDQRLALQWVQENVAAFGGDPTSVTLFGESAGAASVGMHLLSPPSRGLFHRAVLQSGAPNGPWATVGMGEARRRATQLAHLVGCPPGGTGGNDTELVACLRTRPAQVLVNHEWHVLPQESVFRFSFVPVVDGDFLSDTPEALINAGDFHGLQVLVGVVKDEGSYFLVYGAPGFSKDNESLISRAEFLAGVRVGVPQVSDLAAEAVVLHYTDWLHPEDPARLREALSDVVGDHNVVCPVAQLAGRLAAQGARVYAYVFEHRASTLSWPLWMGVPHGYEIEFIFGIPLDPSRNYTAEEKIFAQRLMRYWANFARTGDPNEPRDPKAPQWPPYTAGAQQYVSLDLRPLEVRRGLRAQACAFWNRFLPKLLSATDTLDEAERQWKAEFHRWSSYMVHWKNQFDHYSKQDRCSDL

[4] = relative magnitude of the activity in words; remark: listed apart in the source
[5] = relative magnitude of the activity in words; remark: listed apart in the source
[6] = relative magnitude of the activity in words; remark: listed apart in the source
[7] = relative magnitude of the activity in words; remark: listed apart in the source
GABA A = settings: relative magnitude of the activity in words
[8] = relative magnitude of the activity in words; remark: listed apart in the source
[9] = relative magnitude of the activity in words; remark: listed apart in the source

Compound | antinociceptive pain blocker [2] | AChEl [3] | analgesic pain relief [4] | sedative [6] | further results
C=C(C)C1CC=C(C)CC1 (single isomer, unassigned; (+)) [(+) limonene] |  |  |  |  | beta wave activity (EEG) ([1]; all subjects): increase relative high beta wave activity; alpha wave activity (EEG) ([1]; men): no increase in alpha wave activity; beta and other absolute wave activity (EEG) ([1]; men): relative high beta activity increase; alpha wave activity (EEG) ([1]; women): increased absolute fast alpha wave activity; beta wave activity (EEG) ([1]; women): decreased relative mid beta wave activity
CC1=CCC2C(C1)C2(C)C (centres unmarked) [3 carene] | no notable | very strong | no notable |  | 
CC(C)=CCC[C@](C)(O)[C@@H]1CC=C(C)CC1 [a bisabolol] | very strong | no notable | no notable | no notable | muscle relaxant [5]: very strong
C=C/C(C)=C/C/C=C(\C)CCC=C(C)C [alpha farnesene] | no notable |  | no notable |  | 
CC1=CC[C@H](C(C)C)C=C1 [alpha phellandrene] | very strong | no notable | moderate | no notable | anti depressant [7]: moderate
CC1=CCC2CC1C2(C)C (stereo not drawn) [alpha pinene] | no notable | very strong | weak | agonistic | anti depressant [7]: moderate; alpha wave boost: focus ([1]; no gender qualifier): moderate; beta wave boost: creativity ([1]; women only): very strong; GABA A Modulation (GABA A): moderate; anti anxiety [8]: moderate; motor stimulation (EPM) [9]: moderate
CC1=CC=C(C(C)C)CC1 [alpha terpinene] | no notable | very strong |  |  | 
CC1=CC[C@@H](C(C)(C)O)CC1 [alpha terpineol] | very strong | no notable | very strong | moderate | muscle relaxant [5]: very strong
C=C1CC/C=C(\C)CC[C@@H]2[C@@H]1CC2(C)C [beta caryophyllene] | no notable | no notable | moderate | no notable | anti depressant [7]: moderate; anti anxiety [8]: moderate
C=CC(=C)CC/C=C(\C)CCC=C(C)C [beta farnesene] | no notable |  | no notable |  | 
C=CC(=C)CCC=C(C)C [beta myrcene] | no notable | no notable | moderate | weak | muscle relaxant [5]: moderate
C=C/C(C)=C/CC=C(C)C [beta ocimene] | no notable | very strong | no notable |  | 
C=C1CCC2CC1C2(C)C (stereo not drawn) [beta pinene] | no notable | no notable | moderate | moderate | anti depressant [7]: moderate; beta wave boost: creativity ([1]; women only): very strong
C=C1C2CCC(C2)C1(C)C (centres unmarked) [camphene] | no notable | no notable | no notable | moderate | 
CC12CCC(CC1)C(C)(C)O2 [eucalyptol] | no notable | very strong |  |  | 
C=CCc1ccc(O)c(OC)c1 [eugenol] | very strong |  |  |  | 
CC12CCC(C1)C(C)(C)C2O (centres unmarked) [fenchol] | no notable | no notable | no notable | moderate | 
C[C@H]1CC[C@@H](C(C)(C)O)CC2=C1CC[C@@H]2C [guiaol] | no notable | no notable |  | no notable | 
C/C1=C\CC/C(C)=C/CC(C)(C)/C=C/C1 [humulene] | no notable | no notable | no notable | no notable | 
C=C(C)[C@H]1CC=C(C)CC1 [limonene] | no notable | agonistic | moderate |  | anti depressant [7]: moderate; beta wave boost: creativity ([1]; women only): very strong
C=CC(C)(O)CCC=C(C)C (centres unmarked) [linalool] | very strong | no notable | moderate | very strong | anti depressant [7]: very strong; GABA A Modulation (GABA A): very strong; anti anxiety [8]: very strong
C=CC(C)(O)CCC=C(C)CCC=C(C)C (centres unmarked) [nerolidol] | very strong | no notable | moderate | very strong | anti anxiety [8]: very strong
CC1=CCC(=C(C)C)CC1 [terpinolene] | no notable | no notable | no notable | weak | muscle relaxant [5]: moderate; alpha wave activity (EEG) ([1]; all subjects): increase relative fast alpha wave activity; beta wave activity (EEG) ([1]; all subjects): decrease mid beta wave activity; alpha wave activity (EEG) ([1]; men): no increase in alpha wave activity; beta and other absolute wave activity (EEG) ([1]; men): decrease in relative mid beta wave activity; alpha wave activity (EEG) ([1]; women): increased absolute fast alpha wave activity; alpha wave boost: focus ([1]; women only): very strong
(+) alpha pinene |  |  |  |  | alpha wave activity (EEG) ([1]; men): no impact on alpha waves; beta and other absolute wave activity (EEG) ([1]; men): significant decreases in absolute waves such as theta, beta, low beta and high beta; alpha wave activity (EEG) ([1]; women): significantly (P<0.05) increased; beta wave activity (EEG) ([1]; women): absolute beta wave and absolute high beta wave activity significantly (P<0.05) increased
(+) beta pinene |  |  |  |  | alpha wave activity (EEG) ([1]; men): no impact on alpha waves; beta and other absolute wave activity (EEG) ([1]; men): no significant changes in the absolute waves; alpha wave activity (EEG) ([1]; women): significantly increased; beta wave activity (EEG) ([1]; women): significantly increased
